This note sets out measurements from PubChem BioAssay (NCI).

Among the test systems are HCT-116 colon; HCT-15 colon; HOP-62 NSCLC; MDA-MB-231 breast; NCI-H522 lung; NCI/ADR-RES ovarian; OVCAR-3 ovarian; RPMI-8226 leukemia; SW-620 colon; UACC-62 melanoma.
Assay in all cases: NCI tumour cell line growth inhibition, 48 h

Several values for one entry are separate records, joined by “and”; a condition that tells them apart may be missing. Identical values can stand only once.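 All cell lines were grown in 96-well plates and treated with compound for 48 hours. At the GI50, growth is halved. TGI: concentration producing complete growth inhibition.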

Regarding `CNC(=O)c1cccc(C#Cc2cncnc2Nc2ccc(OCc3cccc(F)c3)c(Cl)c2)c1`, the GI50 in the assay with HCT-116 colon was 5.11 µM; in the assay on HCT-15 colon it was 6.52 µM; in the assay with HOP-62 NSCLC, 5.03 µM; with MDA-MB-231 breast it was 5.95 µM; with NCI-H522 lung it was 5.29 µM; in the assay with NCI/ADR-RES ovarian, 6.94 µM. The GI50 is 3.82 µM in the assay on OVCAR-3 ovarian, 14 µM in the assay with RPMI-8226 leukemia, 7.16 µM with SW-620 colon and 16 µM in the assay with UACC-62 melanoma. For the same molecule, the TGI with HCT-116 colon was 13.6 µM; in the assay with HCT-15 colon, greater than 25 µM; in the assay with HOP-62 NSCLC, 10.4 µM; in the assay with MDA-MB-231 breast, greater than 19.5 µM; with NCI-H522 lung it was greater than 25 µM; with NCI/ADR-RES ovarian, greater than 25 µM. The TGI in the assay on OVCAR-3 ovarian is 8.03 µM; in the assay on RPMI-8226 leukemia, greater than 25 µM; with SW-620 colon, greater than 25 µM; in the assay with UACC-62 melanoma, greater than 25 µM.

Take `CC1Cc2ccccc2N1C(=O)Cc1nc(N2CCOCC2)cc(=O)[nH]1` (stereo not given): the GI50 with HCT-116 colon is 6.47 µM and 24.8 µM; with HCT-15 colon, 16.1 µM and 27.7 µM; in the assay with HOP-62 NSCLC, 53.8 µM and 59.9 µM; in the assay on MDA-MB-231 breast, 26.4 µM and 31.3 µM; with NCI-H522 lung it was 25.6 µM and 39.7 µM; in the assay with NCI/ADR-RES ovarian, 64.5 µM and > 88.6 µM. For the same molecule, the GI50 in the assay with OVCAR-3 ovarian was 6.37 µM and 12.8 µM; in the assay with RPMI-8226 leukemia, 22.9 µM and > 58.3 µM; with SW-620 colon, 27.2 µM and 72.5 µM; with UACC-62 melanoma, 0.856 µM and 1.73 µM. For the same molecule, the TGI in the assay with HCT-116 colon, in the assay with HCT-15 colon, in the assay on HOP-62 NSCLC, in the assay with MDA-MB-231 breast, in the assay with NCI-H522 lung and in the assay with NCI/ADR-RES ovarian was greater than 100 µM throughout. The TGI with OVCAR-3 ovarian, with RPMI-8226 leukemia, in the assay with SW-620 colon and in the assay on UACC-62 melanoma was greater than 100 µM in each case.

With `O=[N+]([O-])c1oc2ccc3ccccc3c2c1CCO`, the TGI in the assay on HCT-116 colon is greater than 29.7 µM; in the assay on HCT-15 colon, 34.2 µM; with HOP-62 NSCLC it was greater than 67.1 µM; in the assay with MDA-MB-231 breast, 59.3 µM; in the assay with NCI-H522 lung, 3.77 µM; with NCI/ADR-RES ovarian, 30.1 µM. Further, the TGI in the assay with OVCAR-3 ovarian amounted to 58.5 µM; with RPMI-8226 leukemia, 22.2 µM; with SW-620 colon it was 40.2 µM; with UACC-62 melanoma, 12.5 µM.

For the molecule `Cc1ccccc1C(C(=O)NC1CCCCC1)N(C(=O)CNc1ncccc1F)c1cccc(F)c1` (stereo not given), the GI50 is 96.9 µM with HCT-116 colon; greater than 100 µM with HCT-15 colon; 14.8 µM in the assay on HOP-62 NSCLC; 25.1 µM in the assay on MDA-MB-231 breast; 74.9 µM with NCI-H522 lung; greater than 100 µM in the assay on NCI/ADR-RES ovarian. Further, the GI50 in the assay on OVCAR-3 ovarian is greater than 100 µM; in the assay with RPMI-8226 leukemia it was greater than 100 µM; in the assay on SW-620 colon, greater than 100 µM; with UACC-62 melanoma, greater than 75.4 µM. Also, the TGI in the assay with HCT-116 colon is greater than 100 µM; with HCT-15 colon, greater than 100 µM; in the assay on HOP-62 NSCLC, greater than 64.3 µM; in the assay on MDA-MB-231 breast it was greater than 100 µM; with NCI-H522 lung, greater than 100 µM; with NCI/ADR-RES ovarian, greater than 100 µM. In addition, the TGI in the assay with OVCAR-3 ovarian, in the assay on RPMI-8226 leukemia, with SW-620 colon and in the assay with UACC-62 melanoma was greater than 100 µM in each case.

With `Cc1[nH]nc2ncc(C(=O)N3CCC[C@H]3c3ccc(Cl)cc3)cc12`, the GI50 is 33.1 µM in the assay on HCT-116 colon; 58.3 µM in the assay on HCT-15 colon; greater than 100 µM in the assay on HOP-62 NSCLC; greater than 100 µM in the assay on MDA-MB-231 breast; greater than 100 µM in the assay with NCI-H522 lung; greater than 100 µM in the assay with NCI/ADR-RES ovarian. In addition, the GI50 with OVCAR-3 ovarian was 64.2 µM; in the assay with RPMI-8226 leukemia, 63 µM; in the assay with SW-620 colon, 76 µM; in the assay on UACC-62 melanoma, 44.1 µM. Also, the TGI in the assay on HCT-116 colon, in the assay on HCT-15 colon, in the assay with HOP-62 NSCLC, with MDA-MB-231 breast, in the assay on NCI-H522 lung and in the assay on NCI/ADR-RES ovarian was greater than 100 µM in each case. The TGI in the assay on OVCAR-3 ovarian, in the assay with RPMI-8226 leukemia, in the assay on SW-620 colon and with UACC-62 melanoma was greater than 100 µM throughout.

For `O=C1c2c(Cl)c(Cl)c(Cl)c(Cl)c2C(=O)C2(Cl)CC=CCC12Cl` (stereo not given), the GI50 is 1.76 µM with HCT-116 colon; 1.19 µM in the assay on HCT-15 colon; 1.86 µM in the assay with HOP-62 NSCLC; 1.71 µM in the assay with MDA-MB-231 breast; 1.76 µM in the assay on NCI-H522 lung; 3.41 µM in the assay on NCI/ADR-RES ovarian. Moreover, the GI50 with OVCAR-3 ovarian was 2.02 µM; with RPMI-8226 leukemia, 2.31 µM; with SW-620 colon it was 1.49 µM; in the assay with UACC-62 melanoma it was 1.67 µM. Besides, the TGI with HCT-116 colon is 3.32 µM; with HCT-15 colon, 2.83 µM; in the assay on HOP-62 NSCLC, 3.65 µM; with MDA-MB-231 breast, 3.13 µM; in the assay with NCI-H522 lung, 3.52 µM; in the assay with NCI/ADR-RES ovarian, 13.2 µM. In addition, the TGI was determined as 3.48 µM in the assay with OVCAR-3 ovarian, 6.12 µM in the assay on RPMI-8226 leukemia, 3.08 µM with SW-620 colon and 3.27 µM in the assay with UACC-62 melanoma.

Consider `CN(C)CCOc1ccccc1NC1=C(Cl)C(=O)C(Nc2ccccc2OCCN(C)C)=C(Cl)C1=O`, for which the GI50 is 0.518 µM in the assay with HCT-116 colon; 0.845 µM with HCT-15 colon; 39.1 µM in the assay with HOP-62 NSCLC; 2.21 µM with MDA-MB-231 breast; 0.502 µM in the assay on NCI-H522 lung; 24.6 µM with NCI/ADR-RES ovarian. For the same molecule, the GI50 is 0.444 µM with OVCAR-3 ovarian, greater than 100 µM in the assay on RPMI-8226 leukemia, 0.566 µM with SW-620 colon and greater than 34.1 µM with UACC-62 melanoma. Besides, the TGI is 1.01 µM in the assay on HCT-116 colon; 2.61 µM in the assay on HCT-15 colon; greater than 100 µM with HOP-62 NSCLC; 6.61 µM in the assay on MDA-MB-231 breast; 1.14 µM with NCI-H522 lung; greater than 100 µM in the assay on NCI/ADR-RES ovarian. Moreover, the TGI in the assay on OVCAR-3 ovarian is 0.879 µM; in the assay with RPMI-8226 leukemia, greater than 100 µM; with SW-620 colon it was 1.24 µM; in the assay with UACC-62 melanoma, greater than 49.3 µM.

Consider `CC1(C)CCC(C)(C)c2cc(NC(=O)c3ccc(C(=O)O)cc3)ccc21`, for which the TGI in the assay on HCT-116 colon is 55.7 µM; with HCT-15 colon, greater than 64 µM; with HOP-62 NSCLC, greater than 57.6 µM; in the assay on MDA-MB-231 breast, greater than 90.5 µM; in the assay on NCI-H522 lung it was greater than 89.3 µM; in the assay with NCI/ADR-RES ovarian, greater than 86.1 µM. The TGI is greater than 57.9 µM in the assay with OVCAR-3 ovarian, greater than 100 µM in the assay on RPMI-8226 leukemia, greater than 100 µM in the assay with SW-620 colon and 39.4 µM in the assay on UACC-62 melanoma.
